PMC6311682, “Design, Synthesis, and Biological Evaluation of 2-Nitroimidazopyrazin-one/-es with Antitubercular and Antiparasitic Activity” (Journal of Medicinal Chemistry, 2018)
Values after ≈ are worked out from the molar mass of the structure shown. Read-outs that look alike come from different tables or passages of the source.

Columns and labels:
[1] = Mammalian cytotoxicity assay (resazurin), HepG2; conditions: human, HepG2 cells
[2] = Mammalian cytotoxicity assay (resazurin), HEK293; conditions: human, HEK293 cells
[3] = tested on: L. donovani MHOM/IN/80/DD8 (ATCC50212); test: L. donovani DD8 intracellular (THP-1) amastigote assay; assay type: cell-based; conditions: Leishmania donovani
[4] = tested on: E. histolytica (HM1:IMSS); test: ATP-bioluminescence cell growth and survival assay, E. histolytica trophozoites; assay type: cell-based; conditions: Entamoeba histolytica
[5] = Kinetic solubility determination by LC-UV; conditions: room temperature, 1% DMSO
[6] = Broth microdilution MIC assay, ESKAPE pathogens; assay type: cell-based; conditions: S. aureus, E. coli, K. pneumoniae, A. baumannii, P. aeruginosa; read-out: antibacterial MIC ESKAPE
[7] = tested on: ESKAPE pathogens S. aureus (ATCC 43300), E. coli (ATCC 25922), K. pneumoniae (ATCC 700603), A. baumannii (ATCC 19606), P. aeruginosa (ATCC 27853); test: Broth microdilution MIC assay, ESKAPE pathogens; assay type: cell-based
[8] = tested on: C. difficile (630, ATCC BAA-1382); test: Broth microdilution MIC assay, C. difficile; assay type: cell-based, Clostridium difficile; conditions: 630 ATCC BAA-1382, median MIC; for MIC: Clostridioides difficile, ATCCBAA1382, read-out: antibacterial MIC C. difficile
[9] = tested on: C. albicans (ATCC 90028) and C. neoformans (H99, ATCC 208821); test: Broth microdilution MIC assay, fungi; assay type: cell-based; conditions: for MIC: Candida albicans, read-out: antifungal MIC
[10] = read-out: antiparasitic IC50 L. donovani
[11] = read-out: antiparasitic pIC50 ± SE L. donovani (converted)
[12] = read-out: antiparasitic IC50 E. histolytica
[13] = read-out: antiparasitic pIC50 ± SE E. histolytica (converted)
[14] = PBS, pH 7.4, Solubility µM (PBS), PBS pH 7.4, 24 h
[15] = water, Solubility µM (H2O), 24 h

Row | SMILES | CC50 at 24 h [1] [µM] | CC50 at 24 h [2] [µM] | IC50 [3, 10] [µM] | IC50 [3, 11] [µM] | IC50 [4, 12] [µM] | IC50 [4, 13] [µM] | solubility at 24 h [5, 14] [µM] | solubility at 24 h [5, 15] [µM] | MIC [6] [µg/mL] | antibacterial MIC ESKAPE [7] [µg/mL] | antibacterial MIC C. difficile [8] [µg/mL] | MIC [8] [µg/mL] | antifungal MIC [9] [µg/mL] | MIC [9] [µg/mL]
1 | O=C(NCc1ccccc1)c1nc([N+](=O)[O-])c[nH]1 [16b, N-Benzyl-5-nitro-1H-imidazole-2-carboxamide] | > 100 | > 100 | – | – | – | – | – | – | – | – | – | – | – | –
2 | Cc1ccc(CNC(=O)c2nc([N+](=O)[O-])c[nH]2)cc1 [16d, N-(4-Methylbenzyl)-5-nitro-1H-imidazole-2-carboxamide] | > 100 | > 100 | – | – | – | – | – | – | – | – | – | – | – | –
3 | O=c1[nH]ccn2cc([N+](=O)[O-])nc12 [17a, 2-Nitroimidazo[1,2-a]pyrazin-8(7H)-one] | – | – | > 80 | > 79.4 | > 25 | > 25.1 | > 200 | > 200 | > 32 | >32 | >64 | > 64 | – | –
4 | Cc1ccc(Cn2ccn3cc([N+](=O)[O-])nc3c2=O)cc1 [17d, 7-(4-Methylbenzyl)-2-nitroimidazo[1,2-a]pyrazin-8(7H)-one] | – | – | > 80 | > 79.4 | – | – | < 5 | < 5 | > 32 | >32 | – | – | – | –
5 | O=c1c2nc([N+](=O)[O-])cn2ccn1Cc1ccccc1OC(F)(F)F [17i, 2-Nitro-7-(2-(trifluoromethoxy)benzyl)imidazo[1,2-a]pyrazin-8(7H)-one] | – | – | > 40 | > 39.8 | > 50 | > 50.1 | < 5 | < 5 | > 32 | >32 | – | – | – | –
6 | O=c1c2nc([N+](=O)[O-])cn2ccn1Cc1ccc(F)cc1F [17j, 7-(2,4-Difluorobenzyl)-2-nitroimidazo[1,2-a]pyrazin-8(7H)-one] | – | – | > 40 | > 39.8 | > 50 | > 50.1 | < 5 | < 5 | > 32 | >32 | – | – | – | –
7 | O=c1c2nc([N+](=O)[O-])cn2ccn1Cc1ccccn1 [17k, 2-Nitro-7-(pyridin-2-ylmethyl)imidazo[1,2-a]pyrazin-8(7H)-one, 1TFA] | – | – | > 80 | > 79.4 | > 50 | > 50.1 | – | – | > 32 | >32 | >64 | > 64 | – | –
8 | CC(c1ccc(F)cc1)n1ccn2cc([N+](=O)[O-])nc2c1=O (stereo not shown) [17l, 7-(1-(4-Fluorophenyl)ethyl)-2-nitroimidazo[1,2-a]pyrazin-8(7H)-one] | – | – | > 80 | > 79.4 | > 50 | > 50.1 | < 10 | < 10 | > 32 | >32 | >64 | > 64 | – | –
9 | CC(=O)OCCn1ccn2cc([N+](=O)[O-])nc2c1=O [17o, 2-(2-Nitro-8-oxoimidazo[1,2-a]pyrazin-7(8H)-yl)ethyl Acetate] | – | – | > 80 | > 79.4 | > 50 | > 50.1 | – | – | > 32 | >32 | >64 | > 64 | – | –
10 | O=c1c2nc([N+](=O)[O-])cn2ccn1CCO [17p, 7-(2-Hydroxyethyl)-2-nitroimidazo[1,2-a]pyrazin-8(7H)-one] | – | – | > 80 | > 79.4 | > 50 | > 50.1 | > 200 | > 200 | > 32 | >32 | >64 | > 64 | – | –
11 | O=c1c2nc([N+](=O)[O-])cn2ccn1CCN1CCOCC1 [17q, 4-(2-(2-Nitro-8-oxoimidazo[1,2-a]pyrazin-7(8H)-yl)ethyl)morpholin-4-ium 2,2,2-Trifluoroacetate] | – | – | > 80 | > 79.4 | > 50 | – | – | – | > 32 | >32 | >64 | > 64 | – | –
12 | O=C(Cn1ccn2cc([N+](=O)[O-])nc2c1=O)N1CCOCC1 [17r, 7-(2-Morpholino-2-oxoethyl)-2-nitroimidazo[1,2-a]pyrazin-8(7H)-one] | – | – | > 80 | > 79.4 | > 50 | > 50.1 | 194 ± 0.526 (≈ 59.6 µg/mL) | 192 ± 1.51 (≈ 59 µg/mL) | > 32 | >32 | >64 | > 64 | – | –
13 | NC(=O)Cn1ccn2cc([N+](=O)[O-])nc2c1=O [17s, 2-(2-Nitro-8-oxoimidazo[1,2-a]pyrazin-7(8H)-yl)acetamide] | – | – | > 80 | > 79.4 | > 50 | > 50.1 | > 200 | > 200 | > 32 | >32 | >64 | > 64 | – | –
14 | O=[N+]([O-])c1cn2ccnc(OCc3ccccc3OC(F)(F)F)c2n1 [18i, 2-Nitro-8-((2-(trifluoromethoxy)benzyl)oxy)imidazo[1,2-a]pyrazine] | – | – | – | – | > 50 | > 50.1 | < 5 | < 5 | > 32 | >32 | – | – | – | –
15 | O=[N+]([O-])c1cn2ccnc(OCCc3ccc(OC(F)(F)F)cc3)c2n1 [18m, 2-Nitro-8-(4-(trifluoromethoxy)phenethoxy)imidazo[1,2-a]pyrazine] | – | – | – | – | – | – | – | – | > 32 | >32 | – | 64 (≈ 174 µM) | – | –
16 | O=c1c2nc([N+](=O)[O-])cn2cc(-c2ccccc2)n1CCO [24d, 7-(2-Hydroxyethyl)-2-nitro-6-phenylimidazo[1,2-a]pyrazin-8(7H)-one] | – | – | – | – | – | – | 164 ± 21 (≈ 49.2 µg/mL) | 163 ± 15 (≈ 48.9 µg/mL) | > 32 | >32 | >64 | > 64 | >32 | > 32
17 | Cc1cn2cc([N+](=O)[O-])nc2c(OCc2cccc(OC(F)(F)F)c2)n1 [25k] | > 100 | > 100 | > 40 | > 39.8 | – | – | – | – | > 32 | – | – | – | – | > 32
18 | Cc1c(C)n2cc([N+](=O)[O-])nc2c(=O)n1Cc1cccc(OC(F)(F)F)c1 [26f, 5,6-Dimethyl-2-nitro-7-(3-(trifluoromethoxy)benzyl)imidazo[1,2-a]pyrazin-8(7H)-one] | 25.6 to 80 | – | – | – | – | – | 15.7 ± 0.404 (≈ 6 µg/mL) | 15.9 ± 1.55 (≈ 6.08 µg/mL) | > 32 | >32 | – | – | >32 | > 32
19 | NC(=O)c1nc([N+](=O)[O-])cn1Cc1ccccc1 [28b] | > 100 | > 100 | – | – | – | – | – | – | – | – | – | – | – | –
20 | Cc1ccc(Cn2cc([N+](=O)[O-])nc2C(N)=O)cc1 [28d] | > 100 | > 100 | – | – | – | – | – | – | – | – | – | – | – | –
